Laboratory results reported in ChEMBL document CHEMBL4130414, “Asymmetric synthesis of novel triazole derivatives and their in vitro antiviral activity and mechanism of action” (Eur J Med Chem, 2017).
≈ marks a conversion by molar mass, not a printed value. Calls of active or inactive are those of the source. The rule behind the calls is not given here.

Key:
Enterovirus A71 [1] = assay: Antiviral activity against EV71 Xiangyang-Hubei-09 infected in human RD cells assessed as inhibition of virus-induced cytopathic effect by MTT dye based assay; type: functional, organism-based
[2] = Cytotoxicity against human RD cells assessed as reduction in cell viability after 3 days by MTT assay; type: cell-based
[3] = Selectivity index, ratio of CC50 for human HEP2 cells to EC50 for Coxsackievirus B3 (strain Nancy) infected in human HEP cells; type: toxicity, cell-based; settings: HEp-2 cells, read-out: Ratio CC50/EC50
[4] = Cytotoxicity against human Hep2 cells assessed as reduction in cell viability after 3 days by MTT assay; type: cell-based; settings: HEp-2 cells
Coxsackievirus B3 [5] = assay: Antiviral activity against Coxsackievirus B3 (strain Nancy) infected in human HEP2 cells assessed as inhibition of virus-induced cytopathic effect by MTT dye based assay; type: functional, organism-based
Enterovirus A71 [6] = assay: Antiviral activity against EV71 Xiangyang-Hubei-09 infected in human RD cells assessed as inhibition of virus-induced cytopathic effect at 16 ug/ml preincubated with RD cells for 2 hrs followed by washing with PBS and subsequent viral infection measured after 48 hrs by MTT assay; type: functional, organism-based
Coxsackievirus B3 [7] = assay: Antiviral activity against Coxsackievirus B3 (strain Nancy) infected in human HEP2 cells assessed as inhibition of virus-induced cytopathic effect at 16 ug/ml after 48 hrs by MTT dye based assay; type: functional, organism-based
Enterovirus A71 [8] = assay: Antiviral activity against EV71 Xiangyang-Hubei-09 infected in human RD cells assessed as alteration in viral cell morphology at 16 ug/ml after 48 hrs; type: functional, organism-based
Enterovirus A71 [9] = assay: Antiviral activity against EV71 Xiangyang-Hubei-09 infected in human RD cells assessed as inhibition of virus-induced cytopathic effect at 16 ug/ml treated 1 hr post viral infection measured after 48 hrs by MTT dye based assay relative to control; type: functional; settings: for inhibition at 16 µg/mL: Enterovirus A, Xiangyang-Hubei-09, RD
Enterovirus A71 [10] = assay: Antiviral activity against EV71 Xiangyang-Hubei-09 infected in human RD cells at 16 ug/ml preincubated with RD cells for 2 hrs followed by washing with PBS and subsequent viral infection measured after 48 hrs; type: functional, organism-based
Enterovirus A71 [11] = assay: Antiviral activity against EV71 Xiangyang-Hubei-09 infected in human RD cells assessed as inhibition of viral adsorption at 16 ug/ml treated simultaneously with viral infection for 2 hrs followed by washing with PBS measured after 48 hrs; type: functional, organism-based
[12] = Selectivity index, ratio of CC50 for human RD cells to EC50 for EV71 Xiangyang-Hubei-09 infected in human RD cells; type: toxicity, cell-based; settings: read-out: Ratio CC50/EC50
Enterovirus A71 [13] = assay: Antiviral activity against EV71 Xiangyang-Hubei-09 infected in human RD cells assessed as reduction in progeny viral yield at 16 ug/ml treated 1 hr post viral infection measured after 48 hrs; type: functional
[14] = Enterovirus B, Nancy, HEp-2, read-out: EC50
[15] = Enterovirus A, Xiangyang-Hubei-09, RD, read-out: EC50

| Compound | CC50 at 72 h [2] [µg/mL] | selectivity ratio [3] | CC50 at 72 h [4] [µg/mL] | EC50 (Coxsackievirus B3 [5]; [14]) [µg/mL] | EC50 (Enterovirus A71 [1]; [15]) [µg/mL] | selectivity ratio [12] | other results |
| --- | --- | --- | --- | --- | --- | --- | --- |
| CC[C@H](CCn1cncn1)c1ccc(Cl)cc1 | 57 (≈ 228 µM) | 3.7 | 50.6 (≈ 203 µM) | 13.5 (≈ 54.1 µM) | – | – | EC50 (Enterovirus A71 [1]; rd): Not Active |
| C[C@H](CCn1cncn1)Cc1ccccc1 | 153 (≈ 710 µM) | 12.6 | 144 (≈ 670 µM) | 11.4 (≈ 52.9 µM) | 6.2 (≈ 28.8 µM) | 24.7 | inhibition (Enterovirus A71 [1]): Dose-dependent effect; inhibition (Enterovirus A71 [6]): inactive; inhibition (Coxsackievirus B3 [7]): Active; inhibition (Enterovirus A71 [8]): Active; inhibition at 16 µg/mL (Enterovirus A71 [9]): 72%; inhibition (Enterovirus A71 [10]): inactive; inhibition (Enterovirus A71 [11]): Active; log(activity) (Enterovirus A71 [13]): 4.7; inhibition (Coxsackievirus B3 [5]): Dose-dependent effect |
| COc1ccc([C@H](CCn2cncn2)Cc2ccccc2)cc1 | 66 (≈ 215 µM) | 4.9 | 60.3 (≈ 196 µM) | 12.2 (≈ 39.7 µM) | 12.2 (≈ 39.7 µM) | 5.4 | – |
| CCC[C@H](CCn1cncn1)c1ccc(F)cc1 | 38.4 (≈ 155 µM) | – | 39.3 (≈ 159 µM) | – | – | – | – |
| c1ccc(C[C@@H](CCn2cncn2)c2ccccc2)cc1 | 56 (≈ 202 µM) | – | 55.9 (≈ 202 µM) | – | – | – | – |
| c1ccc(C(CCn2cncn2)C2CCCCC2)cc1 (single isomer, unassigned; 39) | 11.8 (≈ 43.8 µM) | 4.9 | 24.8 (≈ 92.1 µM) | 5.1 (≈ 18.9 µM) | – | – | EC50 (Enterovirus A71 [1]; rd): Not Active |
| CCCC[C@@H](CCn1cncn1)c1ccc(Cl)cc1 | 18.7 (≈ 67.3 µM) | – | 17 (≈ 61.2 µM) | – | – | – | – |
| CC[C@H](CCn1cncn1)c1ccc(C)cc1 | 85.2 (≈ 372 µM) | 6.2 | 75.2 (≈ 328 µM) | 12.1 (≈ 52.8 µM) | 6.6 (≈ 28.8 µM) | 12.9 | – |
| CCC[C@@H](CCn1cncn1)c1ccc(F)cc1 | 56.9 (≈ 230 µM) | – | 55.3 (≈ 224 µM) | – | – | – | – |
| NC(=O)c1ncn([C@@H]2O[C@H](CO)[C@@H](O)[C@H]2O)n1 [RIBAVIRIN] | 486 (≈ 1990 µM) | 13.3 | 572 (≈ 2340 µM) | 42.9 (≈ 176 µM) | 32.5 (≈ 133 µM) | 15 | inhibition (Coxsackievirus B3 [7]): Active; inhibition (Enterovirus A71 [9]): Active |
| CC[C@H](CCn1cncn1)c1ccc(F)cc1 | 110 (≈ 473 µM) | – | 103 (≈ 442 µM) | – | – | – | EC50 (Enterovirus A71 [1]; rd): Not Active; EC50 (Coxsackievirus B3 [5]): Not Active |
| CCCC[C@@H](CCn1cncn1)c1ccc(C)cc1 | 56.5 (≈ 220 µM) | – | 60.7 (≈ 236 µM) | – | – | – | EC50 (Enterovirus A71 [1]; rd): Not Active; EC50 (Coxsackievirus B3 [5]): Not Active |
| Cc1ccc([C@H](CCn2cncn2)Cc2ccccc2)cc1 | 117 (≈ 402 µM) | 11.2 | 152 (≈ 522 µM) | 13.6 (≈ 46.7 µM) | 9.2 (≈ 31.6 µM) | 12.7 | – |
| Cc1ccc(C[C@H](CCn2cncn2)c2ccccc2)cc1 | 37.8 (≈ 130 µM) | 5.2 | 38.8 (≈ 133 µM) | 7.4 (≈ 25.4 µM) | – | – | EC50 (Enterovirus A71 [1]; rd): Not Active |
| CCC[C@H](CCn1cncn1)c1ccc(C)cc1 | 47.2 (≈ 194 µM) | – | 45.7 (≈ 188 µM) | – | – | – | – |
| CCCC[C@H](CCn1cncn1)c1ccc(Cl)cc1Cl | 10.1 (≈ 32.3 µM) | – | 13.4 (≈ 42.9 µM) | – | – | – | – |
| CCCC[C@H](CCn1cncn1)c1ccc(C)cc1 | 26.5 (≈ 103 µM) | – | 23.7 (≈ 92.1 µM) | – | – | – | – |
| CCCC[C@H](CCn1cncn1)c1ccc(Cl)cc1 | 20.3 (≈ 73.1 µM) | – | 20.2 (≈ 72.7 µM) | – | – | – | – |
| Clc1ccc([C@@H](CCn2cncn2)Cc2ccccc2)cc1 | 24.4 (≈ 78.3 µM) | – | 25.9 (≈ 83.1 µM) | – | – | – | – |
| Clc1ccc([C@H](CCn2cncn2)Cc2ccccc2)c(Cl)c1 | 1.9 (≈ 5.49 µM) | – | 4.9 (≈ 14.2 µM) | – | – | – | – |
| Cc1ccc(C(CCn2cncn2)C2CCCCC2)cc1 (single isomer, unassigned) | 57.9 (≈ 204 µM) | 4.9 | 57.3 (≈ 202 µM) | 11.7 (≈ 41.3 µM) | 10.6 (≈ 37.4 µM) | 5.5 | – |
| CCCC[C@@H](CCn1cncn1)c1ccc(OC)cc1 | 39.4 (≈ 144 µM) | – | 31.6 (≈ 116 µM) | – | – | – | – |
| CC[C@@H](CCn1cncn1)c1ccc(C)cc1 | 79.4 (≈ 346 µM) | 11.7 | 69.9 (≈ 305 µM) | 6 (≈ 26.2 µM) | 5.4 (≈ 23.5 µM) | 14.7 | inhibition (Enterovirus A71 [1]): Dose-dependent effect; inhibition (Enterovirus A71 [6]): inactive; inhibition (Coxsackievirus B3 [7]): Active; inhibition (Enterovirus A71 [8]): Active; inhibition at 16 µg/mL (Enterovirus A71 [9]): 81%; inhibition (Enterovirus A71 [10]): inactive; inhibition (Enterovirus A71 [11]): Active; log(activity) (Enterovirus A71 [13]): 4.7; inhibition (Coxsackievirus B3 [5]): Dose-dependent effect |
